One experiment has as its target T1, Angiotensin II receptor (Rattus norvegicus, UniProt P29089+P25095+P35351).
T1 sequence (P29089 whole entry): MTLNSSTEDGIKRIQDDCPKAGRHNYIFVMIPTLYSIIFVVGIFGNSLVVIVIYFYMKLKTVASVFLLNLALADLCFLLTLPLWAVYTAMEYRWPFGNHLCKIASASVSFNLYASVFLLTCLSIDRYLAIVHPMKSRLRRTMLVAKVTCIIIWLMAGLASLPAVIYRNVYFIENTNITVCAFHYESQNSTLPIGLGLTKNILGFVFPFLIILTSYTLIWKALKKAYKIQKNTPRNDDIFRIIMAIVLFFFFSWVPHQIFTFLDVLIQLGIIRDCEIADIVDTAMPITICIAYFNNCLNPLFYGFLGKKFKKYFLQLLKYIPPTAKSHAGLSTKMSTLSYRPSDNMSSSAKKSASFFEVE
T1 sequence (P25095 whole entry): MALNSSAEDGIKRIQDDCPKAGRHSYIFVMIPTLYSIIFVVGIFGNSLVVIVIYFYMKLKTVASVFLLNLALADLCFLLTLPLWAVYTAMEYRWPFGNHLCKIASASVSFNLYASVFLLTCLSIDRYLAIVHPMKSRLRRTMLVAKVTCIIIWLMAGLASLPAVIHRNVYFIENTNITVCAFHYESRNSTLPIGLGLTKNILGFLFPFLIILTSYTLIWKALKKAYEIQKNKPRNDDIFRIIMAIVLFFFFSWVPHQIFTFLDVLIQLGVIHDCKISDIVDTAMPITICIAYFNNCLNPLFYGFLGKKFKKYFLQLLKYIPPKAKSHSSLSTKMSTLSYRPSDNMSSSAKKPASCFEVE
T1 sequence (P35351 whole entry): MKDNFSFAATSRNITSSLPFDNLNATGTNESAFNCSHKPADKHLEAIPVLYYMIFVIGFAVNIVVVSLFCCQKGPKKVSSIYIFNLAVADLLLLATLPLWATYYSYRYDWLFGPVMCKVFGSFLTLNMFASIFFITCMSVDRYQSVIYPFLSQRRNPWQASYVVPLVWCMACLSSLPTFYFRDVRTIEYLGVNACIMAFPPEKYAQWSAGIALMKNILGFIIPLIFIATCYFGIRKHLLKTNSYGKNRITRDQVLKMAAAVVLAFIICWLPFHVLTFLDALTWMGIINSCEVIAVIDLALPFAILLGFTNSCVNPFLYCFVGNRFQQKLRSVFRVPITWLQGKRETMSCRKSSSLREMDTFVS
As to the kind of experiment: Tested for binding affinity by measuring displacement of [125I]-Sar1 Ile8 angiotensin II from rat adrenal cortical membranes. It counts as cell membranes, Membrane. Background: Loss of bound radioactivity is the signal in a displacement assay; it reports binding, not function.

The species entered for experiment [1] is Rattus norvegicus. As to the kind of experiment: Tested for depression of contractions elicited by angiotensin II receptor in isolated rat aorta. It counts as functional.
For experiment [2], the system named is Rattus norvegicus. Briefly: Compound was tested for inhibition of angiotensin II induced pressor response after intravenous administration in rats. It counts as functional.
Experiment [3] concerns Rattus norvegicus. Briefly: Tested for percent inhibition of compound against angiotensin II induced pressor response after 3 umol/kg intravenous administration at 70 min in rats. It counts as functional.
For experiment [4], the system named is Rattus norvegicus. Briefly: Tested for percent inhibition of compound against angiotensin II induced pressor response after 1 umol/kg intravenous administration in rats; inactive. It counts as functional.

As for `CCCCc1c(Cc2ccc(-c3ccccc3-c3nn[nH]n3)cc2)nc2ccccc2[n+]1[O-]`, the Ki (commonly a dissociation constant, usually derived from enzyme kinetics or from competition with a known ligand) on Angiotensin II receptor is recorded as 29 nM. Further, the Kb in the experiment filed under Rattus norvegicus [1] was 52 nM.
`CCCCc1c(Cc2ccc(-c3ccccc3-c3nn[nH]n3)cc2)[n+]([O-])c2ccccc2[n+]1[O-]` gave a Ki at Angiotensin II receptor of 2.6 nM. Moreover, the ED50 (commonly the dose that gives a 50% effect, or the effect in half of the subjects) in the experiment on Rattus norvegicus [2] came out at 1.8 µmol/kg. This compound also came in with a Kb in the experiment filed under Rattus norvegicus [1] of 2.1 nM. Further, in the experiment on Rattus norvegicus [3], the inhibition in vivo (as a rule, the drop in the measured response relative to a control, in per cent) at 3 µmol/kg stood at 0%.
`CCCCc1nc2ccccc2nc1Cc1ccc(-c2ccccc2-c2nn[nH]n2)cc1` yielded a Ki on Angiotensin II receptor of 7 nM. Besides, in the experiment filed under Rattus norvegicus [1], the Kb came out at 32 nM.
The compound `CCCCc1nc2ccccc2[n+]([O-])c1Cc1ccc(-c2ccccc2-c2nn[nH]n2)cc1` had a Ki at Angiotensin II receptor of 2.1 nM. Also, in the experiment filed under Rattus norvegicus [1], the Kb is 5.3 nM.
On to `CCCCc1nc2cccc(C(=O)O)c2nc1Cc1ccc(-c2ccccc2-c2nn[nH]n2)cc1`, for which, at Angiotensin II receptor, the inhibition constant Ki is reported as 6.9 nM. Further, the inhibition in vivo at 1 µmol/kg in the experiment on Rattus norvegicus [4] amounted to 7%. Besides, in the experiment listed under Rattus norvegicus [1], the Kb is 0.49 nM.

The values are drawn from ChEMBL document CHEMBL1126817, “Synthesis, Biological Properties, and Structure-Activity Relationships of Quinoxaline Angiotensin II Receptor Antagonists” (Bioorg Med Chem Lett, 1993).
